Values after ≈ are worked out from the molar mass of the structure shown. Read-outs that look alike come from different tables or passages of the source.
How the values were obtained:
hNav1.8 = hNav1.8 (Homo sapiens (Human), UniProt Q9Y5Y9); experiment: Manual patch clamp, Method 1 (CHO cell line stably expressing hNav1.8); format: cell-based; conditions: for inhibition at 0.01 µM / inhibition at 0.1 µM: read-out: Inhibition rate of hNav1.8; for IC50: Method 1, CHO-hNav1.8, manual patch clamp, resting state, read-out: IC50 inhibitory activity against hNav1.8; for inhibition at 0.1 µM: 100 nM
Description: The patch clamp technique is known as the “gold standard” for studying ion channels, and it uses glass microelectrodes to seal the cell membrane to measure the currents of various membrane channel. […] Patch clamp technology can evaluate the inhibition strength of different compounds on different states of Navs by measuring the changes of membrane channel currents after different compounds bind to different states of Navs.
The representative compounds of the present invention used stable CHO or HEK293 cell lines transfected with specific ion channels to measure the effect of the compounds on Nav1.8 currents by manual patch clamp test, to evaluate their inhibition strength.
The assay protocol of manual patch clamp is as follows:
CHO cell lines with stable expression of hNav1.8 were cultured in F12 medium containing 10% fetal bovine serum at a constant temperature of 37° C., and the carbon dioxide concentration was maintained at 5%. The old culture medium was removed and washed once with PBS, then 1 mL 0.25%-Trypsin-EDTA solution was added and incubated at 37° C. for 1 min. When the cells were detached from the bottom of the dish, 5 mL of the complete medium preheated at 37° C. was added, and the aggregated cells were separated by gently blowing with a straw. The cell suspension was transferred into a sterile centrifuge tube and centrifuged at 1000 rpm for 5 min to collect cells. The cells were then inoculated into a cell culture dish with a diameter of 6 cm (2.5×10^5 cells/petri dish, 5 mL medium) for expansion or maintenance.
In order to maintain the electrophysiological activity of the cells, the cell density must be less than 80%.
The cells were separated with 0.25%-Trypsin-EDTA before the assay, and 5×10^3 cells were seeded on a cover slip and cultured in a 24-well plate (final volume: 500 μL) for 18 h. Then the assay was conducted.
The compounds prepared in the examples of the present invention were dissolved in dimethyl sulfoxide (DMSO) and prepared into DMSO stock solution with a concentration of 10 mM for assay. And it was diluted to various concentrations with extracellular solution (140 mM NaCl, 3.5 mM KCl, 1 mM MgCl2, 2 mM CaCl2), 10 mM Glucose, 10 mM HEPES, 1.25 mM NaH2PO4, pH=7.4 regulated by NaOH), and the final concentration of DMSO in each compound sample was 0.10% or less.
A capillary glass pipette (BF150-86-10, Sutter Instruments) was pulled into a recording electrode with a micropipette puller (P97, Sutter Instruments). The micromanipulator (MP285, Sutter Instruments) was manipulated under an inverted microscope (IX71, Olympus) to make the recording electrode contact the cell and negative pressure suction was applied to achieve a GQ seal. Then, rapid capacitance compensation was performed, and negative pressure was continued, cell membrane was broken by suction, and whole cell recording mode was formed. Then the slow capacitance was compensated and the membrane capacitance and series resistance were recorded without leakage compensation. When the whole cell recording current was stabilized, dosing was initiated, and the next concentration was detected after acting 5 minutes of each drug concentration. Multiple cells were independently repeated during the recording period. All electrophysiological assays were performed at room temperature. Specifically, 6 concentrations (measuring IC50) or 2 concentrations (preliminary screening) were set for each compound, and the percentage of inhibition of sodium channels was determined by calculating the relative percentage of peak current generated before and after each concentration compound treated cells, and the IC50 value or percentage of inhibition at a specific concentration was calculated using IGOR pro software.

[1] = Assay of kinetic solubility; format: physicochemical; conditions: aqueous buffer, kinetic from dmso stock, pH 3.5 phosphate buffer, 25° C.
Procedure: The stock solutions of the test compound and the standard progesterone were prepared in DMSO at the concentration of 10 mM.
30 μL of stock solutions at 10 mM of the test compounds and standard substance were placed in order into their proper 96-well plate. 970 μL phosphate buffer at the specified pH was added to the proper vial of the sample plate. The assay was performed in duplicate. A stirring stick was added to each vial and the teflon/silicone plug was capped. The sample tray was then placed in the Eppendorf Thermomixer Comfort and shaken at 1100 RPM at 25° C. for 2 hours. After 2 hours, plugs were removed, a big magnet was used to remove the stirring sticks, and samples were transferred from the sample plate to the filter plate. Vacuum pump was used to create negative pressure and filtered the samples. Transferred 5 μL of the filtrate to the new sample plate, then added 5 μL DMSO and 490 μL water/acetonitrile (V/V=1/1) to dilute the solvent. The dilution factor may be adjusted according to the solubility values of the substances to be tested or the strength of its LC-MS signal response.
From the 10 mM DMSO stock solution, 15 μL of that was transferred into the empty plate and 485 μL DMSO was added to prepare a 300 μM standard solution. From the 300 μM standard solution plate, 5 μL of that was transferred to another empty plate and 5 μL phosphate buffer at specified pH and 490 μL water/acetonitrile (V/V=1/1) dilution solvent were added to the standard solution to get a final concentration of 3 μM. The concentration of the standard solution may be adjusted according to the strength of its LC-MS signal response.
The sample plate was placed into the sample tray of the automatic sampler and the samples were evaluated by LC-MS/MS analysis.
All calculations were carried out by Microsoft Excel.
The sample filtrate was analyzed and quantified against a standard of known concentrations using LC-MS spectral peaks to identify and quantify. The solubility values of the control drug and the compounds to be tested were calculated as the following formula: • [Sample]: concentration of the sample • AREASample: peak area of the sample • INJ VOLStd: standard sample injection volume • DFSample: sample dilution factor • [STD]: standard substance concentration • AREAStd: peak area of standard substance • INJ VOLSample: sample injection volume

[2] = Stability assay for human liver microsomes in vitro; format: in vitro ADME; conditions: 1 μM compound, 0.5 mg/mL liver microsomes, read-out: Human liver microsome stability T1/2
Procedure: • Human liver microsomes, purchased from Corning or Xenotech, stored in a −80° C. refrigerator. • Nicotinamide adenine dinucleotide phosphate (NADPH), Chem-impex international, 00616 • Control compounds: testosterone, diclofenac, propafenone
• Water bath (HH-60, Guohua, Changzhou, China) • Pipette workstation (PP-550DS, Apricot, Covina, USA) • Centrifuge (5810R, Eppendorf, Hamburg, Germany) • Mass Spectrometer (Sciex API 4000, Singapore) • High Performance Liquid Chromatography (LC 20-AD, Shimadzu, Kyoto, Japan) • Sampler (ADDA, Apricot Designs, California, USA)
• Stock solution: 10 mM in DMSO • Working solution concentration preparation: 10 mM stock solution was diluted to 100 μM with 100% acetonitrile (organic phase content: 99% ACN, 1% DMSO)
Two 96-well incubation plates were named T60 incubation plate and NCF60 incubation plate.
445 μL microsomal working solution (liver microsomal protein concentration: 0.56 mg/mL) was added to the T60 and NCF60 incubation plates respectively, then the incubation plates above were placed in a water bath at 37° C. for pre-incubation approximately 10 minutes.
After the pre-incubation finished, 5 μL of the test compound working solution was added to the T60 and NCF60 incubation plates respectively, and mixed well. 50 μL potassium phosphate buffer was added to each well on the NCF60 incubation plate to start the reaction. 180 μL termination solution (acetonitrile solution containing 200 ng/mL tolbutamide and 200 ng/mL labetalol) and 6 uL working solution of NADPH regeneration system were added to the TO termination plate, and 54 μL samples were removed from the T60 incubation plate to the TO termination plate (TO sample generated). The reaction was initiated by adding 44 μL of NADPH regenerating system working solution per well on the T60 incubation plate. Only 54 μL microsomal working solution, 6 uL NADPH regeneration system working solution, and 180 μL termination solution were added to the Blank plate. Therefore, in the samples of the test or control compounds, the final reaction concentration of the compounds, testosterone, diclofenac and propafenone was 1 μM, the concentration of the liver microsomes was 0.5 mg/mL, and the final concentration of DMSO and acetonitrile in the reaction system was 0.01% (v/v) and 0.99% (v/v), respectively.
After incubation for an appropriate time (e.g. 5, 10, 20, 30, and 60 minutes), 180 μL of termination solution (acetonitrile solution containing 200 ng/mL tolbutamide and 200 ng/mL labetalol) was added to the sample hole of each termination plate, respectively. After that, 60 μL sample was removed from the T60 incubation plate to terminate the reaction.
All sample plates were shaken evenly and centrifuged at 3220×g for 20 min. Then 80 μL supernatant was taken from each well and diluted to 240 μL pure water for LC-MS/MS analysis.
All samples were injected for analysis.

Human Nav1.8 ion channel = Human Nav1.8 ion channel (Homo sapiens (Human), UniProt Q9Y5Y9); experiment: Manual patch clamp, Method 2 (HEK293 cells stably expressing human Nav1.8, resting state); format: cell-based; conditions: Method 2, HEK293-hNav1.8, resting state, 1 μM TTX; read-out: IC50 inhibitory activity against hNav1.8

hNav1.8, sequence (Q9Y5Y9 whole entry): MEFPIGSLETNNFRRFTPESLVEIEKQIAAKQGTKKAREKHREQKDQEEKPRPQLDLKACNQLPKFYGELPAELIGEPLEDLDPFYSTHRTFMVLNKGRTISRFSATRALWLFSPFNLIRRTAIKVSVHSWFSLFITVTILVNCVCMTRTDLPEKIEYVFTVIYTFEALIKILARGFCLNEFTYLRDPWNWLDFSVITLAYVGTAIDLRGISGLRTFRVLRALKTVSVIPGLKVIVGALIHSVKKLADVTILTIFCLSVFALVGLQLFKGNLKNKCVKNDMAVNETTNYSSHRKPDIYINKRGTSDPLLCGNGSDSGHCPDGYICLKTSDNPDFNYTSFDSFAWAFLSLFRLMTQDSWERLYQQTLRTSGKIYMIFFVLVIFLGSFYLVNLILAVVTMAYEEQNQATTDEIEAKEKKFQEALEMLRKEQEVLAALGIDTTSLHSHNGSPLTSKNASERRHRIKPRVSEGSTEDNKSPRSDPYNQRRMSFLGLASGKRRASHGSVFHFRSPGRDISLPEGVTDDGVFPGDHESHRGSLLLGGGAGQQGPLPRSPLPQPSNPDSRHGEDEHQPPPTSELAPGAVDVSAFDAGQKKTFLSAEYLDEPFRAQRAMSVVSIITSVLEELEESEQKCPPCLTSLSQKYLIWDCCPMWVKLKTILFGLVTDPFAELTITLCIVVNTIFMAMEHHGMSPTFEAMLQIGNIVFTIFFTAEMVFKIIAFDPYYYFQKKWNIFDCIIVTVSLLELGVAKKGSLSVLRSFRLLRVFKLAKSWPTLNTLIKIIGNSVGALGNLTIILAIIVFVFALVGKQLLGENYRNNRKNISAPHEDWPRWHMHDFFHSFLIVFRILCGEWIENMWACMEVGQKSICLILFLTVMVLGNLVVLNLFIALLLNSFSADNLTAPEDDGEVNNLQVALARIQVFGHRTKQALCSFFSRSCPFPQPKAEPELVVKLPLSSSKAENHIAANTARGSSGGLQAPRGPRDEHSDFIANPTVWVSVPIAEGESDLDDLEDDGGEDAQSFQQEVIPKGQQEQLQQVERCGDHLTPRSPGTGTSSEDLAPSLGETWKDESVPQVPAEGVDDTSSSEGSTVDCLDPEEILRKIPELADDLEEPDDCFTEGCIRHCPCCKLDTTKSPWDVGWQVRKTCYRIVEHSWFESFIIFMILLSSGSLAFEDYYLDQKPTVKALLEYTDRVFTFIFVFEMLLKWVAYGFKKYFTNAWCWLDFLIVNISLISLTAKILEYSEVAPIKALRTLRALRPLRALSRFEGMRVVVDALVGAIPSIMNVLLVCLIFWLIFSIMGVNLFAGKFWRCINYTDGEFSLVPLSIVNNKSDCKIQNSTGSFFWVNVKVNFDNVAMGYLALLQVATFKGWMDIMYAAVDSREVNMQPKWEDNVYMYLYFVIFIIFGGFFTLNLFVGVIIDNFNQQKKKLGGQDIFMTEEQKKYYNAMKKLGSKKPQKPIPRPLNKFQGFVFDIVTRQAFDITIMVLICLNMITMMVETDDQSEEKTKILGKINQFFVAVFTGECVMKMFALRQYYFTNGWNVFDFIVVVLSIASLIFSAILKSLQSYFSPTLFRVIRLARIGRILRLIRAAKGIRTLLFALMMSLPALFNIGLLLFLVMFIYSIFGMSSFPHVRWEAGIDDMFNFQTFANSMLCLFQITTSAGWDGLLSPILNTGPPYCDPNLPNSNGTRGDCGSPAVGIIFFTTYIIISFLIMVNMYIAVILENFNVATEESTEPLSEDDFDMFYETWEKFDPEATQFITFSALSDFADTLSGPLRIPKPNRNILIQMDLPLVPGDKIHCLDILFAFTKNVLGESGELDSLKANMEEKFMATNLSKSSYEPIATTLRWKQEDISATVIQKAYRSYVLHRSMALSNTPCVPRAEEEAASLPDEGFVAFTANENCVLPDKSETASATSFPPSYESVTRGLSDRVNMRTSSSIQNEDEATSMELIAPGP

| SMILES | inhibition at 0.01 µM (hNav1.8; CHO) | IC50 (hNav1.8) | solubility kinetic at 2 h [1] | half-life at 1 µM [2] | inhibition at 0.01 µM (hNav1.8; 10 nM, Method 1, CHO-hNav1.8) | IC50 (Human Nav1.8 ion channel) | inhibition at 0.1 µM (hNav1.8; Method 1, CHO-hNav1.8) |
| --- | --- | --- | --- | --- | --- | --- | --- |
| NS(=O)(=O)c1cc(NC(=O)c2nc3ccccc3nc2N2CCCC(F)(F)CC2)ccn1 [Example 06, 3-(4,4-difluoroazepan-1-yl)-N-(2-sulfamoylpyridin-4-yl)quinoxaline-2-carboxamide] | 77.6% | 3.1 nM | 0.39 µM (≈ 0.18 µg/mL) | > 2.42 h |  |  |  |
| NC(=O)c1cccc(NC(=O)c2nc3ccccc3nc2N2CCCC(F)(F)CC2)c1 [Example 07, N-(3-carbamoylphenyl)-3-(4,4-difluoroazepan-1-yl)quinoxaline-2-carboxamide] |  | 14.7 nM | 52.7 µM (≈ 22.4 µg/mL) | 1.06 h | 48.3% |  |  |
| NC(=O)c1cc(NC(=O)c2cc3ccccc3nc2N2CCCC(F)(F)CC2)ccc1F [Example 09, N-(3-carbamoyl-4-fluorophenyl)-2-(4,4-difluoroazepan-1-yl)quinoline-3-carboxamide] |  | 1 nM | 157 µM (≈ 69.6 µg/mL) | 0.372 h | 91.3% | 0.918 nM |  |
| Cc1ccc2cc(C(=O)Nc3ccnc(C(N)=O)c3)c(N3CCCC(F)(F)CC3)nc2c1 [Example 23, N-(2-carbamoylpyridin-4-yl)-2-(4,4-difluoroazepan-1-yl)-7-methylquinoline-3-carboxamide] |  |  |  |  |  | 1.5 nM | 97.2% |
| COc1cc2cc(C(=O)Nc3ccnc(C(N)=O)c3)c(N3CCCC(F)(F)CC3)nc2cc1OC [Example 24, N-(2-carbamoylpyridin-4-yl)-2-(4,4-difluoroazepan-1-yl)-6,7-dimethoxyquinoline-3-carboxamide] |  |  | 9.88 µM (≈ 4.8 µg/mL) | > 2.42 h |  | 97.1 nM | 51% |
| CS(=N)(=O)c1cc(NC(=O)c2cc3ccccc3nc2N2CCCC(F)(F)CC2)ccn1 (centres unmarked) [Example 26, 2-(4,4-difluoroazepan-1-yl)-N-(2-(S-methylsulfonimidoyl)pyridin-4-yl)quinoline-3-carboxamide] |  |  | 127 µM (≈ 58.4 µg/mL) | 1.17 h |  | 8 nM | 91.5% |
| CS(=N)(=O)c1cc(NC(=O)c2cc3cc(F)c(F)cc3nc2N2CCCC(F)(F)CC2)ccn1 (centres unmarked) [Example 27, 2-(4,4-difluoroazepan-1-yl)-6,7-difluoro-N-(2-(S-methylsulfonimidoyl)pyridin-4-yl)quinoline-3-carboxamide] |  |  | 78.8 µM (≈ 39 µg/mL) | 2.26 h |  |  | 97% |
| CNS(=O)(=O)c1cc(NC(=O)c2cc3ccccc3nc2N2CCCC(F)(F)CC2)ccn1 [Example 28, 2-(4,4-difluoroazepan-1-yl)-N-(2-(N-methylsulfamoyl)pyridin-4-yl)quinoline-3-carboxamide] |  |  | 131 µM (≈ 62.3 µg/mL) |  |  | 11.4 nM | 94.2% |
| NS(=O)(=O)c1cccc(NC(=O)c2cc3ccccc3nc2Oc2ccc(F)cc2Cl)c1 [Example 30, 2-(2-chloro-4-fluorophenoxy)-N-(3-sulfamoylphenyl)quinoline-3-carboxamide, reference compound] |  |  | < 0.18 µM |  |  | 9.5 nM | 94% |
| Cc1cc(F)ccc1Oc1cc(C(F)(F)F)ccc1C(=O)Nc1cc[nH]c(=O)c1 [Example 32, 2-(4-fluoro-2-methylphenoxy)-N-(2-carbonyl-1,2-dihydropyridin-4-yl)-4-(trifluoromethyl)benzamide, reference compound] |  |  | < 1.56 µM |  | 38.1% |  | 84.7% |

— US20250115578A1, “AROMATIC FUSED RING NAV1.8 INHIBITOR, AND USE THEREOF” (CHENGDU KANGHONG PHARMACEUTICAL CO., LTD., priority 2022, published 2025)
